Measured values published in EP0145484B1, “Vancomycin purification improvement and product” (ELI LILLY AND COMPANY, priority 1983, dated 1985).

Assay: Stability of bulk samples on storage
Format: physicochemical
Conditions: three lots prepared by the method of Example 2, stored at 21-28°C in polyethylene containers; over a twelve month period; 525600 min
Procedure: The vancomycin diphosphate crystal form provided by this invention is a highly crystalline solid when hydrated that is stable over prolonged periods of time. The stability of bulk samples of vancomycin diphosphate was determined by preparing three lots of the compound by the method of Example 2. Samples of the three individual lots were stored at 21-28°C in polyethylene containers. Various physical parameters of each of the three lots were analyzed at zero, six, twelve and eighteen months.

For vancomycin diphosphate, the “initial biological activity retained” value was “more than 90%”.
